The assay concerns the target T1, human wild-type (WT)-pendrin (Homo sapiens, UniProt O43511).
T1 construct: expressed in transfected cells
T1 sequence (O43511 1-780): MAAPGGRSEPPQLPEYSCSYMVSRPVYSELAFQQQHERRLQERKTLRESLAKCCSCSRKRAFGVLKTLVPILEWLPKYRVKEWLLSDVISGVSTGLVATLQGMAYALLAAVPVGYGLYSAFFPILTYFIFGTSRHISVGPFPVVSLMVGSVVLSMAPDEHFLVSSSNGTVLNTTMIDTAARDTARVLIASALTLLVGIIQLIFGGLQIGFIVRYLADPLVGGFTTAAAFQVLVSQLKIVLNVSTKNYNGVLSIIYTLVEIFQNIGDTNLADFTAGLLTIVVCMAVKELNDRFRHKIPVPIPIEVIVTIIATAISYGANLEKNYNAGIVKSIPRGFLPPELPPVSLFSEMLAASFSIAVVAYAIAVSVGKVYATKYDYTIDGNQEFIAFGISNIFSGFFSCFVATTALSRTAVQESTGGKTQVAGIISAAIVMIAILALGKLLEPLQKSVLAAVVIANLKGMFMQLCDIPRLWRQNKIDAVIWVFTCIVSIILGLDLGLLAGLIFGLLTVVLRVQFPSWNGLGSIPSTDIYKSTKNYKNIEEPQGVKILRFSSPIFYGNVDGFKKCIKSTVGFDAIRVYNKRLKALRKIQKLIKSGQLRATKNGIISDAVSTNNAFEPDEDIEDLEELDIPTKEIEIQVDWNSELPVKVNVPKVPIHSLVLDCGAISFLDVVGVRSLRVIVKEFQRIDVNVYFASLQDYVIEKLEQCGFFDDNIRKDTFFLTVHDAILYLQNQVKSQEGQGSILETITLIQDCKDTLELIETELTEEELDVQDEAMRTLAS
Description: Pendrin-mediated Cl^−/I^− exchange activity, YFP fluorescence in CHO-K1 cells. Type of assay: cell-based. As to conditions: for inhibition at 30 µM: CHO-K1, 30 μM, read-out: Pendrin inhibitory activity at 30 μM (%); for IC50: compounds showing pendrin inhibitory activity of 50% or more at 30 μM, read-out: IC50. The method, then: Chinese hamster ovary (CHO)-K1 cells were maintained in a DMEM medium containing 10% fetal bovine serum (FBS), 100 units/ml penicillin and 100 100 μg/ml streptomycin. CHO-K1 cells were stably transfected with pcDNA3.1 encoding halide sensor YFP-H148Q/I152L/F46L and human wild-type (WT)-pendrin. For distribution of primary culture of human nasal cavity epithelium (HNE) cells, passage-2 cells were seeded into transwell-transparent culture inserts with a pore size of 0.45 μm (Costar Co., Cambridge, MA) at a density of 2×10^5 cells/cm^2. The cells were maintained in a 1:1 mixture of Dulbecco's modified Eagle's medium (Lonza, Walkersville, MD) and bronchial epithelial growth medium (Lonza) supplemented with the following growth factors according to the manufacturer's instructions. After immersing the cells for the first 7 days, they were exposed to the apical air interface for the remainder of the culture period. After establishment of the air-liquid interface, the cells were used between 14 and 21 days. At all stages of culture, the cells were maintained at 37° C. under 5% CO2 in an air incubator.
CHO-K1 cells expressing human WT pendrin and YFP-F46L/H148Q/I152L were plated on a 96-well microplate at a density of 2×10^4 cells per well and cultured for 48 hours. Each well of the cell cultured 96-well plate was washed with PBS of 200 μL twice and was filled with HEPES buffer solution of 50 μL, respectively. […] After culturing at 37° C. for 10 minutes, the 96-well plate was positioned on FLUOstar Omega microplate reader (BMG Labtech, Ortenberg, Germany) for fluorescence analysis. By continuously (400 ms per point) recording fluorescence for 1 second (base line), each well was individually analyzed for pendrin-mediated I^− inflow, and then at 1 second, 50 μL of NaI-substituted HEPES buffer solution (NaI replacing NaCl) was added using a liquid injector and the YFP fluorescence was recorded for 5 seconds. The initial iodide inflow rate was determined from the initial slope of fluorescence by nonlinear regression, after injection the iodide (See FIG. 1).
For measurement of Cl^−/I^− exchange activity, YFP fluorescence was measured in pendrin and halide sensor YFP expressing CHO-K1 cells. Each well of the cell cultured 96-well plate was washed with PBS of 200 μL twice, and was filled with HEPES buffer solution (140 mM NaCl, 5 mM KCl, 1 mM MgCl2, 1 mM CaCl2, 10 mM glucose and 10 mM HEPES (pH 7.4)), respectively. […] After culturing at 37° C. for 10 minutes, the 96-well plate was positioned on FLUOstar Omega microplate reader (BMG Labtech, Ortenberg, Germany) for fluorescence analysis.
By continuously (400 ms per point) recording fluorescence for 1 second (base line), each well was individually analyzed for pendrin-mediated I^− inflow, and then at 1 second, 50 μL of NaI-substituted HEPES buffer solution (140 mM NaI, 5 mM KCl, 1 mM MgCl2, 1 mM CaCl2, 10 mM glucose and 10 mM HEPES (pH 7.4)) was added using a liquid injector and the YFP fluorescence was recorded for 5 seconds. The initial iodide inflow rate was determined from the initial slope of fluorescence by nonlinear regression, after injection the iodide.

Molecules are shown by their SMILES.

With `O=C1OC(c2ccc(C(F)(F)F)cc2)=NC1=Cc1cccs1` [F1, 4-(thiophen-2-ylmethylene)-2-(4-(trifluoromethyl)phenyl)oxazol-5 (4H)-one], the inhibition at 30 µM was 2.6%.

Turning to `CC(C)(C)c1ccc(C2=NC(=Cc3cncs3)C(=O)O2)cc1` [F2, 2-(4-(tert-butyl)phenyl)-4-(thiazol-5-ylmethylene)oxazol-5(4H)-one], the inhibition at 30 µM stood at 57.5% and the half-inhibitory concentration (IC50) (usually the concentration that gives 50% inhibition) stood at 26.9 ± 2.95 µM.

In the case of `Cc1[nH]c2ccccc2c1C=C1N=C(c2ccc(C(C)(C)C)cc2)OC1=O` [F3, 2-(4-(tert-butyl)phenyl)-4-((2-methyl-1H-indol-3-yl1)methylene)oxazol-5(4H)-one], the inhibition at 30 µM came out at 4.3%.

On to `CC(C)(C)OC(=O)n1cc(C=C2N=C(c3ccc(C(C)(C)C)cc3)OC2=O)c2ccccc21` [F4, tert-butyl 3-((2-(4-(tert-butyl)phenyl)-5-oxooxazol-4(5H)-ylidene)methyl)-1H-indol-1-carboxylate], for which the inhibition at 30 µM was 2.6%.

For `N#Cc1ccc(C2=NC(=Cc3cccs3)C(=O)O2)cc1` [F5, 4-(5-Oxo-4-(thiophen-2-ylmethylene)-4,5-dihydrooxazol-2-yl)benzonitrile], the inhibition at 30 µM was determined as 3.5%.

Take `Cn1cccc1C=C1N=C(c2ccc(C(C)(C)C)cc2)OC1=O` [F6, 2-(4-(tert-butyl)phenyl)-4-((1-methyl-1H-pyrrol-2-yl)methylene)oxazol-5 (4H)-one]: the inhibition at 30 µM came out at 3.7%.

As to `COC(=O)c1ccc(C2=NC(=Cc3cccs3)C(=O)O2)cc1` [F7, Methyl 4-(5-oxo-4-(thiophen-2-ylmethylene)-4,5-dihydrooxazol-2-yl)benzoate], the inhibition at 30 µM amounted to 2.8%.

As to `Cc1ncsc1C=C1N=C(c2ccc(C(C)(C)C)cc2)OC1=O` [F8, 2-(4-(tert-butyl)phenyl)-4-((4-methylthiazol-5-yl)methylene)oxazol-5 (4H)-one], the inhibition at 30 µM came to 72.5% and the IC50 worked out at 20.5 ± 1.69 µM.

Turning to `CC(C)(C)c1ccc(C2=NC(=Cc3ccsc3)C(=O)O2)cc1` [F9, 2-(4-(tert-butyl)phenyl)-4-(thiophen-3-ylmethylene)oxazol-5 (4H)-one], the inhibition at 30 µM worked out at 52.5% and the IC50 worked out at 28.7 ± 2.25 µM.

Consider `CC(C)(C)c1ccc(C2=NC(=Cc3cc4ccccc4s3)C(=O)O2)cc1` [F11, 4-(Benzo[b]thiophen-2-ylmethylene)-2-(4-(tert-butyl)phenyl)oxazol-5 (4H)-one], for which the inhibition at 30 µM was 3.6%.

On to `CC(C)c1ccc(C2=NC(=Cc3ccc[nH]3)C(=O)O2)cc1` [F12, 4-((1H-pyrrol-2-yl)methylene)-2-(4-isopropylphenyl)oxazol-5(4H)-one], for which the inhibition at 30 µM amounted to 100% and the IC50 is 1 ± 0.15 µM.

Consider `CC(C)(C)c1ccc(C2=NC(=Cc3ccnc4ccccc34)C(=O)O2)cc1` [F13, 2-(4-(tert-butyl)phenyl)-4-(quinolin-4-ylmethylene)oxazol-5 (4H)-one], for which the inhibition at 30 µM turned out to be 3.8%.

Turning to `CC(C)Cc1ccc(C2=NC(=Cc3cccs3)C(=O)O2)cc1` [F14, 2-(4-Isobutylphenyl)-4-(thiophen-2-ylmethylene)oxazol-5 (4H)-one], the inhibition at 30 µM is 33.1%.

Turning to `CC(C)Cc1ccc(C2=NC(=Cc3ccsc3)C(=O)O2)cc1` [F15, 2-(4-Isobutylphenyl)-4-(thiophen-3-ylmethylene)oxazol-5 (4H)-one], the inhibition at 30 µM worked out at 3.8%.

On to `CC(C)c1ccc(C2=NC(=Cc3csc4ccccc34)C(=O)O2)cc1` [F16, 4-(Benzo[b]thiophen-3-ylmethylene)-2-(4-isopropylphenyl)oxazol-5(4H)-one], for which the inhibition at 30 µM was determined as 3.1%.

On to `O=C1OC(c2ccc(C(F)(F)F)cc2)=NC1=Cc1ccc[nH]1` [F17, 4-((1H-pyrrol-2-yl)methylene)-2-(4-(trifluoromethyl)phenyl)oxazol-5(4H)-one], for which the inhibition at 30 µM was 6.9%.

`O=C1OC(c2ccc(C(F)(F)F)cc2)=NC1=Cc1ccsc1` [F18, 4-(Thiophen-3-ylmethylene)-2-(4-(trifluoromethyl)phenyl)oxazol-5(4H)-one]: the inhibition at 30 µM came out at 3.4%.

With `CC(C)Cc1ccc(C2=NC(=Cc3ccco3)C(=O)O2)cc1` [F19, 4-(Furan-2-ylmethylene)-2-(4-isobutylphenyl)oxazol-5 (4H)-one], the inhibition at 30 µM amounted to 54.8% and the IC50 amounted to 20.1 ± 2.46 µM.

For the molecule `CC(C)Cc1ccc(C2=NC(=Cc3ccc[nH]3)C(=O)O2)cc1` [F20, 4-((1H-pyrrol-2-yl)methylene)-2-(4-isobutylphenyl)oxazol-5 (4H)-one], the inhibition at 30 µM amounted to 82.9% and the IC50 was 2.8 ± 0.26 µM.

Consider `CC(C)Cc1ccc(C2=NC(=Cc3csc4ccccc34)C(=O)O2)cc1` [F21, 4-(Benzo[b]thiophen-3-ylmethylene)-2-(4-isobutylphenyl)oxazol-5(4H)-one], for which the inhibition at 30 µM was found to be 2.9%.

With `Cc1ncsc1C=C1N=C(c2ccc(Br)cc2)OC1=O` [F22, 2-(4-Bromophenyl)-4-((4-methylthiazol-5-yl)methylene)oxazol-5(4H)-one], the inhibition at 30 µM was found to be 2.4%.

As to `O=C1OC(C2CCCCC2)=NC1=Cc1cccs1` [F23, 2-Cyclohexyl-4-(thiophen-2-ylmethylene)oxazol-5 (4H)-one], the inhibition at 30 µM was 2.1%.

In the case of `Cc1ncsc1C=C1N=C(c2ccc(-c3ccccc3)cc2)OC1=O` [F24, 2-([1,1′-biphenyl]-4-yl)-4-((4-methylthiazol-5-yl)methylene)oxazol-5 (4H)-one], the inhibition at 30 µM was determined as 3.6%.

`O=C1OC(Cc2ccc(-c3ccccc3)cc2)=NC1=Cc1ccc[nH]1` [F25, 4-((1H-pyrrol-2-yl)methylene)-2-([1,1′-biphenyl]-4-ylmethyl)oxazol-5(4H)-one]: the inhibition at 30 µM is 3.8%.

`CCCCc1ccc(C2=NC(=Cc3ccc[nH]3)C(=O)O2)cc1` [F26, 4-((1H-pyrrol-2-yl)methylene)-2-(4-butylphenyl)oxazol-5(4H)-one]: the inhibition at 30 µM turned out to be 69.9% and the IC50 came to 12.8 ± 1.55 µM.

As to `CC(C)(C)c1ccc(C2=NC(=Cc3cccn3-c3ccccc3)C(=O)O2)cc1` [F27, 2-(4-(tert-butyl)phenyl)-4-((1-phenyl-1H-pyrrol-2-yl)methylene)oxazol-5 (4H)-one], the inhibition at 30 µM is 2.8%.

As to `O=C1OC(Cc2ccc(-c3ccccc3)cc2)=NC1=Cc1cccs1` [F28, 2-([1,1′-biphenyl]-4-ylmethyl)-4-(thiophen-2-ylmethylene)oxazol-5 (4H)-one], the inhibition at 30 µM is 2.2%.

`O=C1OC(c2ccc3c(c2)CCC3)=NC1=Cc1cccs1` [F29, 2-(2,3-dihydro-1H-indene-5-yl)-4-(thiophen-2-ylmethylene)oxazol-5 (4H)-one]: the inhibition at 30 µM is 3.3%.

`O=C1OC(c2cccc3ccccc23)=NC1=Cc1ccc[nH]1` [F30, 4-((1H-pyrrol-2-yl)methylene)-2-(naphthalen-1-yl)oxazol-5(4H)-one]: the inhibition at 30 µM is 3.9%.

The values above are taken from patent US12691101B2, “Compound and method for preventing or treating of respiratory diseases comprising the same as an active ingredient” (YONSEI UNIVERSITY, UNIVERSITY - INDUSTRY FOUNDATION (UIF), priority 2019, dated 2026).
